# Reference: patent US20250108038A1 (priority 2023, published 2025)
# “And” between values parts separate entries of the source, which are not always exact repeats. Identical values can stand only once.
# Test system: Long Evans rats
# Assay: Behavioral satiety sequence (BSS)
# Assay type: in vivo, Long Evans rat
# Excerpt: The Behavioural Satiety Sequence (BSS) is a technique used to evaluate physiological satiety. It is based on the expression of a sequence of behaviors including eating, grooming, locomotor activity, followed by resting, which are typically observed in rodents post-ingestion (Halford et al, 1998, Pharmacology Biochemistry and Behaviour. 61(2): 159-168). The BSS is a widely used model for determining the effects of novel pharmaceuticals on food intake and measures of satiety in rodents (Oliveira et al, 2011, Revista de Nutrição. 24(4) 619-628), and to discriminate the cause of reduced food intake following pharmacological manipulation. For example, treatments that may reduce food intake by non-specific mechanisms, such as immobility, malaise, and taste adulteration, will disrupt this sequence (Halford et al, 1998, Pharmacology Biochemistry and Behaviour. 61(2): 159-168).
# Specifically, 12 male Long-Evans rats were food-deprived for 22 h with a 2 h feeding period each day. Rats were trained to consume daily food during the 2 h period over 25 days. The testing phase was initiated once the rats consistently consumed 16-18 g of food per day with ≤10% variance in amount of feed consumed. Feeding took place in designated individual boxes in a quiet room separate from the housing room. Continuous remote monitoring via video camera during feeding was used to assess the BSS. Food consumption was measured by weighing the total available food before and after the 2 h feeding window, correcting for spillage. Lorcaserin (1 mg/kg) was included as a reference control (Higgins et al, 2011, Neuropsychopharmacology. 37(5): 1177-1191). Subjects were tested using a repeated-measures, Latin square design with 2-3 days wash-out between treatment cycles.
# On scheduled test days, animals were monitored remotely via video camera during the feeding access period. The occurrence of four mutually exclusive behaviors (eating/drinking, grooming, active, rest) were individually scored. Over the 2 h feeding period, behaviors were assessed every 30 seconds. Scores were compiled into 23 5 min timebins (timebin 24 was removed due to early removal of animals) and the frequency of each behavior within each timebin was calculated to determine a temporal frequency of each measure (Rodgers et al, 2010, Pharmacology Biochemistry and Behaviour. 97: 3-14). Percentage time was plotted for each behavioral sequence in each timebin to compare between treatment groups (Higgins et al, 2011, Neuropsychopharmacology. 37(5): 1177-1191).
# [1] = 0.3 mg/kg, raw score per animal LT-1 to LT-12
# [2] = 1 mg/kg, raw data per animal (LT-1 to LT-12)
compound,measurement,setting,value
Clc1ccc(C2(OCC3OCCO3)c3ccccc3C3=NCCN32)cc1 (stereo not drawn) [Compound I-19],"BSS scoring A (active), Time Bin 16 (75-80 TOTAL)",[1],0 (6×) and 2 (3×) and 3 (3×)
same,"BSS scoring A (active), Time Bin 17 (80-85 TOTAL)",[1],0 (3×) and 2 and 1 (5×) and 3 and 5 (2×)
same,"BSS scoring A (active), Time Bin 18 (85-90 TOTAL)",[1],4 and 0 (5×) and 8 and 2 (2×) and 1 and 5 (2×)
same,"BSS scoring E (eating/drinking), Time Bin 13 (60-65 TOTAL)",[1],10 (3×) and 7 (4×) and 8 (3×) and 9 and 6
same,"BSS scoring E (eating/drinking), Time Bin 14 (65-70 TOTAL)",[1],9 (5×) and 6 and 10 (2×) and 7 and 8 (2×) and 2
same,"BSS scoring E (eating/drinking), Time Bin 15 (70-75 TOTAL)",[1],9 and 6 (4×) and 4 and 1 and 7 (3×) and 5 and 3
same,"BSS scoring E (eating/drinking), Time Bin 16 (75-80 TOTAL)",[1],10 (4×) and 6 (2×) and 9 and 8 and 7 (3×) and 5
same,"BSS scoring E (eating/drinking), Time Bin 17 (80-85 TOTAL)",[1],10 (3×) and 5 and 4 (4×) and 7 (2×) and 9 (2×)
same,"BSS scoring E (eating/drinking), Time Bin 18 (85-90 TOTAL)",[1],4 and 9 (3×) and 8 and 0 and 6 (2×) and 10 and 3 (2×) and 7
same,"BSS scoring G (grooming), Time Bin 13 (60-65 TOTAL)",[1],0 (8×) and 1 (4×)
same,"BSS scoring G (grooming), Time Bin 14 (65-70 TOTAL)",[1],0 (9×) and 1 (3×)
same,"BSS scoring G (grooming), Time Bin 15 (70-75 TOTAL)",[1],0 (7×) and 1 (5×)
same,"BSS scoring G (grooming), Time Bin 16 (75-80 TOTAL)",[1],0 (11×) and 1
same,"BSS scoring G (grooming), Time Bin 17 (80-85 TOTAL)",[1],0 (8×) and 2 (2×) and 1 (2×)
same,"BSS scoring G (grooming), Time Bin 18 (85-90 TOTAL)",[1],2 (2×) and 1 (8×) and 0 (2×)
same,"BSS scoring R (resting), Time Bin 13 (60-65 TOTAL)",[1],0 (7×) and 2 (3×) and 1 (2×)
same,"BSS scoring R (resting), Time Bin 14 (65-70 TOTAL)",[1],0 (7×) and 1 (4×) and 2
same,"BSS scoring R (resting), Time Bin 15 (70-75 TOTAL)",[1],1 (3×) and 0 (6×) and 3 and 2 (2×)
same,"BSS scoring R (resting), Time Bin 16 (75-80 TOTAL)",[1],0 (6×) and 2 (3×) and 1 (3×)
same,"BSS scoring R (resting), Time Bin 17 (80-85 TOTAL)",[1],0 (7×) and 1 (2×) and 4 and 3 and 2
same,"BSS scoring R (resting), Time Bin 18 (85-90 TOTAL)",[1],0 (6×) and 1 (5×) and 2
same,"BSS scoring A (active), Time Bin 19 (90-95 TOTAL), AVG","1 mg/kg, AVG of LT-1 to LT-12",0.14
same,"BSS scoring A (active), Time Bin 20 (95-100 TOTAL), AVG","1 mg/kg, AVG of LT-1 to LT-12",0.10
same,"BSS scoring A (active), Time Bin 21 (100-105 TOTAL), AVG","1 mg/kg, AVG of LT-1 to LT-12",0.14
same,"BSS scoring A (active), Time Bin 22 (105-110 TOTAL), AVG","1 mg/kg, AVG of LT-1 to LT-12",0.15
same,"BSS scoring A (active), Time Bin 23 (110-115 TOTAL), AVG","1 mg/kg, AVG of LT-1 to LT-12",0.18
same,"BSS scoring A (active), Time Bin 24 (115-120 TOTAL), AVG","1 mg/kg, AVG of LT-1 to LT-12",0.15
same,"BSS scoring E (eating/drinking), Time Bin 19 (90-95 TOTAL), AVG","1 mg/kg, AVG of LT-1 to LT-12",0.58
same,"BSS scoring E (eating/drinking), Time Bin 20 (95-100 TOTAL), AVG","1 mg/kg, AVG of LT-1 to LT-12",0.73
same,"BSS scoring E (eating/drinking), Time Bin 21 (100-105 TOTAL), AVG","1 mg/kg, AVG of LT-1 to LT-12",0.61
same,"BSS scoring E (eating/drinking), Time Bin 22 (105-110 TOTAL), AVG","1 mg/kg, AVG of LT-1 to LT-12",0.63
same,"BSS scoring E (eating/drinking), Time Bin 23 (110-115 TOTAL), AVG","1 mg/kg, AVG of LT-1 to LT-12",0.59
same,"BSS scoring E (eating/drinking), Time Bin 24 (115-120 TOTAL), AVG","1 mg/kg, AVG of LT-1 to LT-12",0.41
same,"BSS scoring G (grooming), Time Bin 19 (90-95 TOTAL), AVG","1 mg/kg, AVG of LT-1 to LT-12",0.02
same,"BSS scoring G (grooming), Time Bin 20 (95-100 TOTAL), AVG","1 mg/kg, AVG of LT-1 to LT-12",0.01
same,"BSS scoring G (grooming), Time Bin 21 (100-105 TOTAL), AVG","1 mg/kg, AVG of LT-1 to LT-12",0.01
same,"BSS scoring G (grooming), Time Bin 22 (105-110 TOTAL), AVG","1 mg/kg, AVG of LT-1 to LT-12",0.08
same,"BSS scoring G (grooming), Time Bin 23 (110-115 TOTAL), AVG","1 mg/kg, AVG of LT-1 to LT-12",0.06
same,"BSS scoring G (grooming), Time Bin 24 (115-120 TOTAL), AVG","1 mg/kg, AVG of LT-1 to LT-12",0.02
same,"BSS scoring R (resting), Time Bin 19 (90-95 TOTAL), AVG","1 mg/kg, AVG of LT-1 to LT-12",0.26
same,"BSS scoring R (resting), Time Bin 20 (95-100 TOTAL), AVG","1 mg/kg, AVG of LT-1 to LT-12",0.17
same,"BSS scoring R (resting), Time Bin 21 (100-105 TOTAL), AVG","1 mg/kg, AVG of LT-1 to LT-12",0.24
same,"BSS scoring R (resting), Time Bin 22 (105-110 TOTAL), AVG","1 mg/kg, AVG of LT-1 to LT-12",0.14
same,"BSS scoring R (resting), Time Bin 23 (110-115 TOTAL), AVG","1 mg/kg, AVG of LT-1 to LT-12",0.18
same,"BSS scoring R (resting), Time Bin 24 (115-120 TOTAL), AVG","1 mg/kg, AVG of LT-1 to LT-12",0.26
same,"BSS scoring A (active), Time Bin 19 (90-95 TOTAL)",[2],0 (6×) and 4 and 1 (3×) and 7 and 3
same,"BSS scoring A (active), Time Bin 20 (95-100 TOTAL)",[2],0 (8×) and 6 and 3 and 1 and 2
same,"BSS scoring A (active), Time Bin 21 (100-105 TOTAL)",[2],0 (7×) and 5 (3×) and 1 (2×)
same,"BSS scoring A (active), Time Bin 22 (105-110 TOTAL)",[2],1 (3×) and 3 (3×) and 0 (4×) and 4 and 2
same,"BSS scoring A (active), Time Bin 23 (110-115 TOTAL)",[2],8 and 0 (5×) and 4 (2×) and 2 and 1 (3×)
same,"BSS scoring A (active), Time Bin 24 (115-120 TOTAL)",[2],6 and 0 (6×) and 1 and 3 and 2 (2×) and 4
same,"BSS scoring E (eating/drinking), Time Bin 19 (90-95 TOTAL)",[2],10 (3×) and 8 (3×) and 5 and 9 and 0 (3×) and 2
same,"BSS scoring E (eating/drinking), Time Bin 20 (95-100 TOTAL)",[2],10 (5×) and 6 and 3 and 8 and 2 and 9 (2×) and 0
same,"BSS scoring E (eating/drinking), Time Bin 21 (100-105 TOTAL)",[2],10 (5×) and 2 (2×) and 5 and 3 (2×) and 8 and 0
same,"BSS scoring E (eating/drinking), Time Bin 22 (105-110 TOTAL)",[2],9 and 6 (4×) and 10 and 5 and 7 (2×) and 8 and 3 (2×)
same,"BSS scoring E (eating/drinking), Time Bin 23 (110-115 TOTAL)",[2],0 and 7 (4×) and 10 (2×) and 3 and 5 (2×) and 6 and 4
same,"BSS scoring E (eating/drinking), Time Bin 24 (115-120 TOTAL)",[2],0 (3×) and 2 (2×) and 10 and 5 (3×) and 3 and 9 and 8
same,"BSS scoring G (grooming), Time Bin 19 (90-95 TOTAL)",[2],0 (10×) and 1 (2×)
same,"BSS scoring G (grooming), Time Bin 20 (95-100 TOTAL)",[2],0 (11×) and 1
same,"BSS scoring G (grooming), Time Bin 21 (100-105 TOTAL)",[2],0 (11×) and 1
same,"BSS scoring G (grooming), Time Bin 22 (105-110 TOTAL)",[2],0 (7×) and 1 (2×) and 2 (2×) and 3
same,"BSS scoring G (grooming), Time Bin 23 (110-115 TOTAL)",[2],1 (3×) and 0 (7×) and 2 (2×)
same,"BSS scoring G (grooming), Time Bin 24 (115-120 TOTAL)",[2],0 (10×) and 1 (2×)
same,"BSS scoring R (resting), Time Bin 19 (90-95 TOTAL)",[2],0 (5×) and 2 (3×) and 1 and 9 and 8 and 7
same,"BSS scoring R (resting), Time Bin 20 (95-100 TOTAL)",[2],0 (6×) and 4 and 1 (2×) and 2 and 5 and 7
same,"BSS scoring R (resting), Time Bin 21 (100-105 TOTAL)",[2],0 (5×) and 3 (3×) and 2 (2×) and 6 and 10
same,"BSS scoring R (resting), Time Bin 22 (105-110 TOTAL)",[2],0 (5×) and 1 (2×) and 4 (2×) and 2 (2×) and 3
same,"BSS scoring R (resting), Time Bin 23 (110-115 TOTAL)",[2],1 (3×) and 3 (4×) and 0 (3×) and 2 and 4
same,"BSS scoring R (resting), Time Bin 24 (115-120 TOTAL)",[2],4 (2×) and 7 (2×) and 0 (4×) and 2 and 5 and 1 (2×)
same,"BSS scoring A (active), Time Bin 19 (90-95 TOTAL), AVG","3 mg/kg, AVG of LT-1 to LT-12",0.18
same,"BSS scoring A (active), Time Bin 20 (95-100 TOTAL), AVG","3 mg/kg, AVG of LT-1 to LT-12",0.19
same,"BSS scoring A (active), Time Bin 21 (100-105 TOTAL), AVG","3 mg/kg, AVG of LT-1 to LT-12",0.22
same,"BSS scoring A (active), Time Bin 22 (105-110 TOTAL), AVG","3 mg/kg, AVG of LT-1 to LT-12",0.20
same,"BSS scoring A (active), Time Bin 23 (110-115 TOTAL), AVG","3 mg/kg, AVG of LT-1 to LT-12",0.19
same,"BSS scoring A (active), Time Bin 24 (115-120 TOTAL), AVG","3 mg/kg, AVG of LT-1 to LT-12",0.27
